Laboratory results as given in article PMC6274026 (Molecules, 2016).
Where “and” joins values, the source holds several entries; their conditions need not be identical. Identical values can stand only once.

Key:
MDA-MB-231 [1] = assay: Clonogenicity (recovery) assay, 72 h post-treatment, SRB; conditions: MDA-MB-231, 10, 2, and 0.4 µg/mL, in words
MCF-10A [2] = system: MCF-10A
MCF-7 [3] = system: MCF-7
MCF-10A [4] = assay: Clonogenicity (recovery) assay, 72 h post-treatment, SRB; conditions: MCF-10A, the four tested concentrations, in words
Lewis lung carcinoma = system: Lewis lung carcinoma; parameters: method as in ref 31 = [31]; 31. NCBI, National Center for Biotechnology Information PubChem BioAssay Database 2007 AID=192, 256 and 270 Available online: https://pubchem.ncbi.nlm.nih.gov/bioassay/192, 256, and 270 (accessed on 3); conditions: subcutaneous inoculation, in words; cited from earlier work
BT-549 [5] = system: BT-549
BT-549 [6] = assay: Clonogenicity (recovery) assay, 72 h post-treatment, SRB; conditions: BT-549, 10, 2, and 0.4 µg/mL, in words
in vitro = conditions: human, Cytotoxic activity IC50, MCF-10A, 72 h, mean of three independent experiments ± S.D.
MDA-MB-231 [7] = system: MDA-MB-231
MCF-7 [8] = assay: Clonogenicity (recovery) assay, 72 h post-treatment, SRB

COc1ccc([C@@H]2c3cc4c(cc3C[C@H]3COC(=O)[C@@H]32)OCO4)cc1OC [Compound 3, 5′-demethoxydeoxypodophyllotoxin]
effect on proliferation and recovery after treatment (MDA-MB-231 [1]): cytotoxicity with a lack of recovery | IC50 (MCF-10A [2]; read-out: Cytotoxic activity IC50, 72 h, mean of three independent experiments ± S.D.): 92 ± 9 nM | Potency compared to control POD (MCF-10A [2]; relative to POD): 0.214 | Potency compared to control VP-16 (MCF-10A [2]; relative to VP-16): 0.507 | Selectivity index (MCF-7 [3]; IC50 MCF-10A / IC50 MCF-7): 2.33 | percentage of survival (MCF-7 [3]; MCF-7, 0.08 µg/mL, 72 h): 55% ± 9.9% | Potency compared to control POD (MCF-7 [3]; MCF-7, relative to POD): 0.449 | Potency compared to control VP-16 (MCF-7 [3]; MCF-7, relative to VP-16): 3.124 | IC50 (MCF-7 [3]; read-out: Cytotoxic activity IC50, MCF-7, 72 h, mean of three independent experiments ± S.D.): 40 ± 11 nM | effect on proliferation in the cytotoxicity and clonogenicity assays (MCF-10A [4]): completely inhibited proliferation | biological activity in Lewis lung carcinoma model (Lewis lung carcinoma): did not show biological activities | Potency compared to control POD (BT-549 [5]; BT-549, relative to POD): 0.252 | Potency compared to control VP-16 (BT-549 [5]; BT-549, relative to VP-16): 7.6 and 7.661 | selectivity according to the selectivity criteria (SI ≥ 10 selective) (BT-549 [5]; BT-549 vs MCF-10A, in words): non-selective compound | IC50 (BT-549 [5]; read-out: Cytotoxic activity IC50, BT-549, 72 h, mean of three independent experiments ± S.D.): 21 ± 3 nM | effect on proliferation and recovery after treatment (BT-549 [6]): cytotoxicity with a lack of recovery | IC50 at 72 h (in vitro): 90 ± 9 nM | Selectivity index (MDA-MB-231 [7]; IC50 MCF-10A / IC50 MDA-MB-231): 0.64 | Potency compared to control POD (MDA-MB-231 [7]; MDA-MB-231, relative to POD): 0.168 | Potency compared to control VP-16 (MDA-MB-231 [7]; MDA-MB-231, relative to VP-16): 0.268 | IC50 (MDA-MB-231 [7]; read-out: Cytotoxic activity IC50, MDA-MB-231, 72 h, mean of three independent experiments ± S.D.): 145 ± 45 nM | percentage of recovery (MCF-7 [8]; MCF-7, 0.08 µg/mL, 72 h post-treatment): 111% ± 13% | effect on proliferation and recovery after treatment (MCF-7 [8]; MCF-7, 10, 2, and 0.4 µg/mL, in words): cytotoxicity with a lack of recovery
